What was measured:
[1] = Long-term/accelerated stability
[2] = Stability under influencing factors (high temperature, high humidity, open, 30 days)
[3] = Hygroscopicity of salt crystal forms (DVS, 25° C.); format: physicochemical; settings: for Hygroscopicity 0.0% RH-95.0% RH / Hygroscopicity 20.0% RH-80.0% RH: DVS, 25° C.; for Crystal form: after DVS
Experimental: The test adopts SMS DVS Advantage, at 25° C., with a humidity range of 0 to 95% and a step of 10%. The judgment standard is that the dM/dT of each gradient mass change is less than 0.002%, TMAX is 360 minutes, and the cycle is two times. • 5. Cation chromatography • Instrument model: DIONEX AQUION ion chromatograph, USA • Detection method: conductivity; separation column: IonPac CS16-CG16 • Eluent: MSA 20Mm • Flow rate: 1.0 ml/min • 6. Anion chromatography • Instrument model: DIONEX INTEGRION HPIC ion chromatograph, USA • Detection method: conductivity; separation column: DionexIonPac™-AS11-HC • Eluent: EGC-500-KOH • Flow rate: 1.5 ml/min
Using Surface Measurement Systems advantage, at 25° C., the humidity starts from 50%, the humidity range is 0% to 95%, the step is 10%. The judgment standard was that the dM/dT of each gradient mass change is less than 0.002%, TMAX360 min, and the cycle was two times. The hygroscopicity of different salt crystal forms of the compound of formula I was investigated respectively.

CC(C)(C#Cc1nc(C(Cc2cc(F)cc(F)c2)NC(=O)Cn2nc(C(F)(F)F)c3c2C(F)(F)C2CC32)c(-c2ccc(Cl)c3c(NS(C)(=O)=O)nn(CC(F)(F)F)c23)c2c1CCC2)S(C)(=O)=O.O=S(=O)(O)O (stereo not shown) [Crystal form A of hydrosulfate]
Purity % ([1]; 4° C., 1 month): 99.09% | Purity % ([1]; 4° C., 2 months): 99.08% | Purity % ([1]; 4° C., 3 months): 99.08% | Purity % ([1]; 4° C., 6 months): 99.09% | Purity % ([1]; 4° C., Start): 99.09% | Purity % ([1]; 25° C., 60% RH, 1 month): 99.01% | Purity % ([1]; 25° C., 60% RH, 2 months): 98.99% | Purity % ([1]; 25° C., 60% RH, 3 months): 99.03% | Purity % ([1]; 25° C., 60% RH, 6 months): 98.91% | Purity % ([1]; 25° C., 60% RH, Start): 99.09% | Purity % ([1]; 40° C., 75% RH, 1 month): 98.83% | Purity % ([1]; 40° C., 75% RH, 2 months): 98.99% | Purity % ([1]; 40° C., 75% RH, 3 months): 98.98% | Purity % ([1]; 40° C., 75% RH, 6 months): 98.76% | Purity % ([1]; 40° C., 75% RH, Start): 99.09% | physical and chemical stability (conclusion) ([1]; long-term accelerated stability conditions for 6 months): good physical and chemical stability | physical stability (conclusion) ([2]; 40° C., 60° C., 7500 RH and 92.5% RH, crystal form not transformed): good physical stability | chemical stability (conclusion) ([2]; 40° C., 7500 RH and 92.5%0 RH, not at high temperature (60° C.)): good chemical stability | Color, properties ([2]; 40° C., 5 days): White solid | Crystal form ([2]; 40° C., 5 days): Unchanged | Purity % ([2]; 40° C., 5 days): 99.06% | Color, properties ([2]; 40° C., 10 days): White solid | Crystal form ([2]; 40° C., 10 days): Unchanged | Purity % ([2]; 40° C., 10 days): 99.01% | Color, properties ([2]; 40° C., 30 days): White solid | Crystal form ([2]; 40° C., 30 days): Unchanged | Purity % ([2]; 40° C., 30 days): 99.03% | Color, properties ([2]; 60° C., 5 days): White solid | Crystal form ([2]; 60° C., 5 days): Unchanged | Purity % ([2]; 60° C., 5 days): 96.46% | Color, properties ([2]; 60° C., 10 days): White solid | Crystal form ([2]; 60° C., 10 days): Unchanged | Purity % ([2]; 60° C., 10 days): 96.22% | Color, properties ([2]; 60° C., 30 days): White solid | Crystal form ([2]; 60° C., 30 days): Unchanged | Purity % ([2]; 60° C., 30 days): 95.17% | Color, properties ([2]; 75% RH, 5 days): White solid | Crystal form ([2]; 75% RH, 5 days): Unchanged | Purity % ([2]; 75% RH, 5 days): 99.11% | Color, properties ([2]; 75% RH, 10 days): White solid | Crystal form ([2]; 75% RH, 10 days): Unchanged | Purity % ([2]; 75% RH, 10 days): 99.11% | Color, properties ([2]; 75% RH, 30 days): White solid | Crystal form ([2]; 75% RH, 30 days): Unchanged | Purity % ([2]; 75% RH, 30 days): 99.05% | Color, properties ([2]; 92.5% RH, 5 days): White solid | Crystal form ([2]; 92.5% RH, 5 days): Unchanged | Purity % ([2]; 92.5% RH, 5 days): 99.18% | Color, properties ([2]; 92.5% RH, 10 days): White solid | Crystal form ([2]; 92.5% RH, 10 days): Unchanged | Purity % ([2]; 92.5% RH, 10 days): 99.02% | Color, properties ([2]; 92.5% RH, 30 days): White solid | Crystal form ([2]; 92.5% RH, 30 days): Unchanged | Purity % ([2]; 92.5% RH, 30 days): 99.07% | Color, properties ([2]; Start, 0 days): White solid | Purity % ([2]; Start, 0 days): 99.09% | Hygroscopicity 0.0% RH-95.0% RH [3]: 4.55% | Hygroscopicity 20.0% RH-80.0% RH [3]: 1.59% | Crystal form [3]: Unchanged

CC(C)(C#Cc1nc(C(Cc2cc(F)cc(F)c2)NC(=O)Cn2nc(C(F)(F)F)c3c2C(F)(F)C2CC32)c(-c2ccc(Cl)c3c([N-]S(C)(=O)=O)nn(CC(F)(F)F)c23)c2c1CCC2)S(C)(=O)=O.C[N+](C)(C)CCO (stereo not shown) [Crystal form B of the choline salt]
Color, properties ([2]; 40° C., 5 days): White solid | Crystal form ([2]; 40° C., 5 days): Unchanged | Purity % ([2]; 40° C., 5 days): 98.34% | Color, properties ([2]; 40° C., 10 days): White solid | Crystal form ([2]; 40° C., 10 days): Unchanged | Purity % ([2]; 40° C., 10 days): 98.33% | Color, properties ([2]; 40° C., 30 days): White solid | Crystal form ([2]; 40° C., 30 days): Unchanged | Purity % ([2]; 40° C., 30 days): 98.35% | Color, properties ([2]; 60° C., 5 days): White solid | Crystal form ([2]; 60° C., 5 days): Unchanged | Purity % ([2]; 60° C., 5 days): 98.39% | Color, properties ([2]; 60° C., 10 days): White solid | Crystal form ([2]; 60° C., 10 days): Unchanged | Purity % ([2]; 60° C., 10 days): 98.36% | Color, properties ([2]; 60° C., 30 days): White solid | Crystal form ([2]; 60° C., 30 days): Unchanged | Purity % ([2]; 60° C., 30 days): 98.36% | Color, properties ([2]; 75% RH, 5 days): White solid | Crystal form ([2]; 75% RH, 5 days): Unchanged | Purity % ([2]; 75% RH, 5 days): 98.35% | Color, properties ([2]; 75% RH, 10 days): White solid | Crystal form ([2]; 75% RH, 10 days): Unchanged | Purity % ([2]; 75% RH, 10 days): 98.35% | Color, properties ([2]; 75% RH, 30 days): White solid | Crystal form ([2]; 75% RH, 30 days): Unchanged | Purity % ([2]; 75% RH, 30 days): 98.36% | Color, properties ([2]; 92.5% RH, 5 days): White solid | Crystal form ([2]; 92.5% RH, 5 days): Unchanged | Purity % ([2]; 92.5% RH, 5 days): 98.45% | Color, properties ([2]; 92.5% RH, 10 days): White solid | Crystal form ([2]; 92.5% RH, 10 days): Unchanged | Purity % ([2]; 92.5% RH, 10 days): 98.34% | Color, properties ([2]; 92.5% RH, 30 days): White solid | Crystal form ([2]; 92.5% RH, 30 days): Unchanged | Purity % ([2]; 92.5% RH, 30 days): 98.35% | Color, properties ([2]; Start, 0 days): White solid | Purity % ([2]; Start, 0 days): 98.34% | Hygroscopicity 0.0% RH-95.0% RH [3]: 9.92% | Hygroscopicity 20.0% RH-80.0% RH [3]: 5.96% | Crystal form [3]: Unchanged

CC(C)(C#Cc1nc(C(Cc2cc(F)cc(F)c2)NC(=O)Cn2nc(C(F)(F)F)c3c2C(F)(F)C2CC32)c(-c2ccc(Cl)c3c([N-]S(C)(=O)=O)nn(CC(F)(F)F)c23)c2c1CCC2)S(C)(=O)=O.[Na+] (stereo not shown) [Crystal form IV of the sodium salt]
Hygroscopicity 0.0% RH-95.0% RH [3]: 1.03% | Hygroscopicity 20.0% RH-80.0% RH [3]: 0.45% | Crystal form [3]: changed

From patent publication US20250320194A1, “PHARMACEUTICALLY ACCEPTABLE SALT AND CRYSTAL FORM OF FUSED PYRIDINE RING DERIVATIVE AND PREPARATION METHOD THEREFOR” (Jiangsu Hengrui Pharmaceuticals Co., Ltd., priority 2021, published 2025)
